Laboratory results: publication PMC6713216, “Dual-target anti-Alzheimer’s disease agents with both iron ion chelating and monoamine oxidase-B inhibitory activity” (Journal of Enzyme Inhibition and Medicinal Chemistry, 2019)
Read-outs that look alike come from different tables or passages of the source.

What was measured:
[1] = pKa determination by automatic spectrophotometric titration; assay type: physicochemical; conditions: DMSO/0.1 M KCl 2:3 (V/V) solution, DMSO:KCl (0.1 M) = 2:3 (V/V), 25 °C
Description: (§1) The automatic titration system used in the test consisted of an automatic titrator, a luminescence 759 s UV-Vis spectrophotometer, and a pH Meter (Mettler Toledo InLab Expert PRO/Mettler Toledo InLab Science). All instruments are controlled by a computer program.
(§2) The testing solution (2:3 DMSO/KCl (0.1 M), V/V) was maintained at 25 °C using a TP-3A temperature controller. The cuvette is mounted on a spectrophotometer. The E0 and s of the pH Meter were calibrated by three standard solutions (pH = 6.86, 9.18, 4.00). KCl solution (0.1 M) was used to maintain the ionic strength. For the Fe(III) affinity evaluation, the ratio of compounds to iron ion was kept at 1.1:1 (n/n) when Logβ1 was measured; the ratio of compounds to iron ion was kept at 5:1 (n/n) when Logβ2 and Logβ3 were tested.
The titration was performed in a 50 mm path length cuvette. 45 ml KCl (0.1 M) solution, 40 μL of saturated EDTA solution were added to the cuvette. The pH value of the solution was acidified to 2.0 with hydrochloric acid (1.5 M). Then 20 μL of test compound DMSO solution (30 μM/L) was added and stirred vigorously. By adding KOH solution (0.1 M) from the automatic buret, the pH value of the solution was increased by 0.1. […] Adding KOH solution (0.1 M) and repeated the automatic process until the specified endpoint of pH value was reached. All data were recorded internally by the Visual Basic program, and the test results are analysed by the HypSpec2014 program.

[2] = Determination of iron(III) affinity (Logβ1, Logβ2, Logβ3) by spectrophotometric titration; assay type: physicochemical; conditions: DMSO:KCl (0.1 M) = 2:3 (V/V), 25 °C; for Logβ1: compound:iron 1.1:1; for Logβ2 / Logβ3: compound:iron 5:1
Description: as §1, §2
A 45 ml KCl (0.1 M) solution was added to the cuvette (50 mm) and the pH value was acidified to 2.1. Then 30 μM DMSO solution of the testing compound and 60 μL acidic solution of FeCl3 (15 mM) were added separately, and the mixture was vigorously stirred. After the absorbance value is stabilised, a certain amount of HCl solution (4 M) was added by the automatic buret to reduce the pH of the solution by 0.1. After the system was equilibrated, the spectral scan was performed once after 20 min. This protocol was repeated until the specified endpoint of the pH value was reached. All data was recorded with the internal Visual Basic program, HypSpec2014 program was utilised for the data analysis.
Similarly, 45 ml KCl (0.1 M) solution was added to the cuvette (50 mm) and the pH value was acidified to 2.1. Then 30 μM DMSO solution of the testing compound and 60 μL acidic solution of FeCl3 (15 mM) were added separately, and the mixture was vigorously stirred. After the absorbance value is stabilised, a certain amount of KOH solution (0.1 M) was added by the automatic buret to increase the pH of the solution by 0.1. After the system was equilibrated, the spectral scan was performed once after 5 min. This protocol was repeated until the specified endpoint of the pH value was reached. All data were recorded with the internal Visual Basic program, HypSpec2014 program was utilised for the data analysis[5]^,[21]^,[22].

[3] = Calculation of pFe3+ by HySS software from pKa and logβ values; assay type: physicochemical; conditions: DMSO:KCl (0.1 M) = 2:3 (V/V); calculated by HySS from pKa1, pKa2, logβ1-3
Description: The values of pFe^3+ were calculated by HySS software according to the results of pKa1, pKa2, logβ1, logβ2, and logβ3 determined by the above methods. The basic parameters were set as follows: FeOH = –2.563, Fe(OH)2 = –6.205, Fe(OH)3 = –15.1, Fe2(OH)2 = –2.843, Fe3(OH)4 = –6.059, Fe(OH)4 = –21.883[23].

Human MAO-B = target: T1, Human MAO-B (Homo sapiens, UniProt P27338); assay: Determination of human MAO-B inhibitory activity (Monoamine Oxidase Assay Kit, fluorescence); assay type: biochemical; conditions: for inhibition at 1 µM: read-out: Inhibitory rate (%) 1 μM; for inhibition at 10 µM: compound at 10 μM, read-out: Inhibitory rate (%) 10 μM
T1 construct: purchased Sigma-Aldrich
T1 sequence (P27338 1-520): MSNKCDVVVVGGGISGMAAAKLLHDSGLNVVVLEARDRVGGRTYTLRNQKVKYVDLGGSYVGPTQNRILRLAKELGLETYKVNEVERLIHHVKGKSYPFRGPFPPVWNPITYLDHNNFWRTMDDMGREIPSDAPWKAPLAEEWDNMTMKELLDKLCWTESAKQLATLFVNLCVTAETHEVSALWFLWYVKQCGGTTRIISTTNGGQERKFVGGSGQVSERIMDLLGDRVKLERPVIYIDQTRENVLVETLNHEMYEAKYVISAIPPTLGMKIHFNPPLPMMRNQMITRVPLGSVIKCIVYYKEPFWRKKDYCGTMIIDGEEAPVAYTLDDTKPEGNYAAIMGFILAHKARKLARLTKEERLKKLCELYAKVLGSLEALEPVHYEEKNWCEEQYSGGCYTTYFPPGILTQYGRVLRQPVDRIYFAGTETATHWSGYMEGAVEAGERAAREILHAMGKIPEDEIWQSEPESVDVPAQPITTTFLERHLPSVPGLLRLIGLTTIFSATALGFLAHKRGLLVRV
Description: Human MAO-B (5 mg/mL) was purchased from Sigma-Aldrich and was pre-aliquoted and stored at -70 °C. 200 μL enzymatic reactions were diluted in 2 ml microcentrifuge tubes by potassium phosphate buffer (Assay Buffer, pH 7.4) which have been provided by Sigma-Aldrich Monoamine Oxidase Assay Kit. The final volumes of the reactions were 100 μL and contained 45 μL MAO-B (0.0075 mg/mL), included 5 μL different concentrations of the testing inhibitors (10 μM, 1 μM), and 50 μL Master Reaction, p-Tyramine, HRP Enzyme and Dye Reagent. Stock solutions of the compounds were prepared in DMSO.

[4] = pKa determination by automatic spectrophotometric titration; assay type: physicochemical; conditions: 0.1 M KCl solution, Figure 2; 0.1 M KCl at 25 °C; read-out: pKa1 (Figure 2, printed as pH at curve crossing)

Row | SMILES | pKa ([1]; read-out: pKa1) | pKa ([1]; read-out: pKa2) | Logβ1 [2] | Logβ2 [2] | Logβ3 [2] | pFe3+ [3] | inhibition at 1 µM (Human MAO-B; compound at 1 μM) | inhibition at 10 µM (Human MAO-B) | melting point | IC50 (Human MAO-B) | Inhibitory rate (%) 1 μM (Human MAO-B; compound at 1 μM, 1 µM) | pKa [4]
1 | Cc1cc(=O)c(O)c(CO)n1CCn1cc(COc2cc(=O)oc3ccccc23)nn1 [Compound 27h, 3-hydroxy-2-(hydroxymethyl)-6-methyl-1–(2-(4-(((2-oxo-2H-chromen-4-yl)oxy)methyl)-1H-1,2,3-triazol-1-yl)ethyl)pyridin-4(1H)-one] | 3 | 9.1 | 13.3 | 24.8 | 33.2 | 18.7 | 13.2% | 85.7% | 142 to 148 °C | – | – | –
2 | CCc1c(O)c(=O)ccn1CCn1cc(COc2cc3ccccc3oc2=O)nn1 [Compound 27i, 2-ethyl-3-hydroxy-1–(2-(4-(((2-oxo-2H-chromen-3-yl)oxy)methyl)-1H-1,2,3-triazol-1-yl)ethyl)pyridin-4(1H)-one] | 2.9 | 9.6 | 14.2 | 25.4 | 32.8 | 17.0 | > 30% | 94% | 258 to 261 °C | – | – | –
3 | CCc1c(O)c(=O)ccn1CCCn1cc(COc2cc3ccccc3oc2=O)nn1 [Compound 27j, 2-ethyl-3-hydroxy-1–(3-(4-(((2-oxo-2H-chromen-3-yl)oxy)methyl)-1H-1,2,3-triazol-1-yl)propyl)pyridin-4(1H)-one] | 3.3 | 9.8 | 14.6 | 25.7 | 33.5 | 17.1 | 62% | 88.8% | 192 to 195 °C | 860 nM | 62.43% | 3.4
4 | Cc1cc(=O)c(O)c(CO)n1CCn1cc(COc2ccc3ccc(=O)oc3c2)nn1 [Compound 27a, 3-hydroxy-2-(hydroxymethyl)-6-methyl-1–(2-(4-(((2-oxo-2H-chromen-7-yl)oxy)methyl)-1H-1,2,3-triazol-1-yl)ethyl)pyridin-4(1H)-one] | 2.7 | 9.2 | 13.8 | 24.0 | 33.7 | 18.9 | > 20% | 96.2% | 212 to 215 °C | – | – | –
5 | Cc1cc(=O)c(O)c(C)n1CCn1cc(COc2ccc3ccc(=O)oc3c2)nn1 [Compound 27c, 3-hydroxy-2,6-dimethyl-1–(2-(4-(((2-oxo-2H-chromen-7-yl)oxy)methyl)-1H-1,2,3-triazol-1-yl)ethyl)pyridin-4(1H)-one] | 3.3 | 9.7 | 14.9 | 26.0 | 34.1 | 18.0 | 1.84% | 91% | – | – | – | –
6 | Cc1cc(=O)c(O)c(CO)n1CCCn1cc(COc2cc3ccccc3oc2=O)nn1 [Compound 27k, 3-hydroxy-2-(hydroxymethyl)-6-methyl-1–(3-(4-(((2-oxo-2H-chromen-3-yl)oxy)methyl)-1H-1,2,3-triazol-1-yl)propyl)pyridin-4(1H)-one] | 3.3 | 9.1 | 13.6 | 24.5 | 33.0 | 18.4 | > 30% | 90.5% | – | – | – | –
7 | CCc1c(O)c(=O)ccn1CCCn1cc(COc2ccc3ccc(=O)oc3c2)nn1 [Compound 27e, 2-ethyl-3-hydroxy-1–(3-(4-(((2-oxo-2H-chromen-7-yl)oxy)methyl)-1H-1,2,3-triazol-1-yl)propyl)pyridin-4(1H)-one] | 3.2 | 9.8 | 14.7 | 26.0 | 33.2 | 17.1 | 1.23% | 95.7% | – | – | – | –
8 | CCc1c(O)c(=O)ccn1CCn1cc(COc2cc(=O)oc3ccccc23)nn1 [Compound 27f, 2-ethyl-3-hydroxy-1–(2-(4-(((2-oxo-2H-chromen-4-yl)oxy)methyl)-1H-1,2,3-triazol-1-yl)ethyl)pyridin-4(1H)-one] | 3.4 | 9.8 | 14.9 | 25.7 | 32.8 | 16.7 | > 30% | 93.3% | 253 to 256 °C | – | – | –
9 | CCc1c(O)c(=O)ccn1CCCn1cc(COc2cc(=O)oc3ccccc23)nn1 [Compound 27g, 2-ethyl-3-hydroxy-1–(3-(4-(((2-oxo-2H-chromen-4-yl)oxy)methyl)-1H-1,2,3-triazol-1-yl)propyl)pyridin-4(1H)-one] | 3.2 | 9.7 | 14.6 | 25.6 | 33.1 | 17.1 | > 20% | 89.5% | 195 to 198 °C | – | – | –
10 | Cc1cc(=O)c(O)c(CO)n1CCCn1cc(COc2ccc3ccc(=O)oc3c2)nn1 [Compound 27b, 3-hydroxy-2-(hydroxymethyl)-6-methyl-1–(3-(4-(((2-oxo-2H-chromen-7-yl)oxy)methyl)-1H-1,2,3-triazol-1-yl)propyl)pyridin-4(1H)-one] | 2.8 | 8.8 | 12.9 | 25.5 | 33.5 | 19.8 | – | – | – | 680 nM | – | –
11 | Cc1cc(=O)c(O)c(C)n1CCCn1cc(COc2ccc3ccc(=O)oc3c2)nn1 [Compound 27d, 3-hydroxy-2,6-dimethyl-1–(3-(4-(((2-oxo-2H-chromen-7-yl)oxy)methyl)-1H-1,2,3-triazol-1-yl)propyl)pyridin-4(1H)-one] | 3.4 | 10 | 14.9 | 26.3 | 34.8 | 17.6 | 9.67% | 98.3% | 263 to 265 °C | – | – | –
